Data as given in the supplement of paper PMC11451515.

What was measured:
Test in all cases: AUC of viability dose-response curve (% viability x log10 dose units); higher = less sensitive
Settings in all cases: 48 h
[1] = system: NOMO1
Method in brief: (§1)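 In 1536-well plates, leukemia cells adapted to each medium (500 or 1000 cells/well) were exposed for 48 h at 37°C to library compounds in DMSO across 11 threefold doses, 47 μM down to 0.79 nM. Viability was read by CellTiter-Glo One luminescence and normalised per plate to DMSO and cell-free wells. A four-parameter log-logistic fit over log10 doses was integrated by trapezoidal rule. This yielded the area under the curve, with over-full-viability curves scaled and quality-control failures dropped.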

[2] = system: P12-Ichikawa
Method in brief: as §1

[3] = system: SEM cells
Method in brief: as §1

[4] = RPMI 5 mM glucose + 10% dialyzed FBS

Compound | AUC of viability dose-response curve ([1]; HPLM + 10% dialyzed FBS) | AUC of viability dose-response curve ([1]; RPMI 5 mM glucose + 10% FBS) | AUC of viability dose-response curve [1, 4] | AUC of viability dose-response curve ([2]; HPLM + 10% dialyzed FBS) | AUC of viability dose-response curve ([2]; RPMI 5 mM glucose + 10% FBS) | AUC of viability dose-response curve [2, 4] | AUC of viability dose-response curve ([3]; HPLM + 10% dialyzed FBS) | AUC of viability dose-response curve ([3]; RPMI 5 mM glucose + 10% FBS) | AUC of viability dose-response curve [3, 4]
Oc1ccc(-c2ccc(-c3cc(Nc4cccc(CNC5CC5)c4)[nH]n3)cc2)c(O)c1 | 402 | 396 | 409 | 403 | 372 | 404 | 321 | 376 | 374
Cc1ccc([S+](=O)([O-])Nc2cc(Cl)ccc2C(=O)Nc2nc(-c3ccccc3)cs2)cc1 | 455 | 409 | 447 | 458 | 457 | 450 |  |  | 
N#Cc1ccnc(N2C(=O)CC[C@H]2C(=O)N(c2cncc(F)c2)[C@H](C(=O)NC2CC(F)(F)C2)c2ccccc2Cl)c1 | 348 | 356 | 380 | 321 | 333 | 361 | 359 | 334 | 379
CCOC(=O)N[C@@H]1CC[C@@H]2[C@@H](C1)C[C@H]1C(=O)O[C@H](C)[C@H]1[C@H]2/C=C/c1ccc(-c2cccc(F)c2)cn1 | 466 | 467 | 468 | 472 | 464 | 466 | 473 | 458 | 461
CC(C)(C)OC(=O)Nc1ccc(-c2cc(C(=O)NCCCCCCC(=O)NO)no2)cc1 | 379 | 346 | 361 | 333 | 297 | 276 | 343 | 333 | 288
Cc1nc(N)ncc1-c1nc(N2CCOCC2)c2sc(C(C)(C)O)cc2n1 | 204 | 264 | 285 | 213 | 279 | 276 | 249 | 163 | 220
CN(C)[C@@H](CCOc1cccc2ccccc12)c1ccccc1 | 433 | 461 | 456 | 455 | 433 | 467 | 400 | 444 | 469
COc1cc2ncnc(Nc3cccc(Cl)c3)c2cc1OC | 286 | 370 | 343 | 309 | 315 | 305 | 287 | 242 | 274
CC(C)(O)C(=O)Nc1ccc([N+](=O)[O-])c(C(F)(F)F)c1 | 368 | 355 | 371 | 404 | 409 | 438 | 465 | 449 | 448
Cc1c(C(=O)c2cccc3ccccc23)c2cccc3c2n1[C@H](CN1CCOCC1)CO3 | 432 | 404 | 394 | 417 | 366 | 397 | 372 | 375 | 403
C[C@H](Cc1ccc(O)c(O)c1)[C@@H](C)Cc1ccc(O)c(O)c1 |  |  |  | 443 | 432 | 436 | 394 | 453 | 453
COC(=O)Nc1nc2ccc([S+]([O-])c3ccccc3)cc2[nH]1 (stereo not drawn) | 460 | 468 | 466 | 441 | 454 | 461 | 417 | 438 | 441
O=[S+]([O-])(NCCNC/C=C/c1ccc(Br)cc1)c1cccc2cnccc12 | 452 | 446 | 425 | 462 | 460 | 458 | 377 | 418 | 354
NC\1=N\C(=O)N(\C=C1F)[C@H]2C[C@H](O)[C@@H](CO)O2 | 280 | 360 | 239 | 285 | 279 | 264 | 270 | 359 | 201
Cc1cnc(Nc2ccc(N3CCN(C)CC3)cc2)nc1Nc1cccc([S+](=O)([O-])NC(C)(C)C)c1 | 375 | 411 | 406 | 400 | 390 | 400 | 311 | 303 | 324
Oc1c(Cl)cc(Cl)c2cccnc12 | 446 | 438 | 462 | 465 | 447 | 449 | 435 | 439 | 433
CCOC(=O)O[C@]1(C(=O)OCCl)CC[C@H]2[C@@H]3CCC4=CC(=O)C=C[C@]4(C)[C@H]3[C@@H](O)C[C@@]21C | 459 | 427 | 431 | 467 | 461 | 450 | 460 | 429 | 430
Nc1nc(N)c(N=O)c(OCC2CCCCC2)n1 | 381 | 379 | 380 | 395 | 372 | 371 | 340 | 354 | 370
CN1CCN(CCCN2c3ccccc3Sc3ccc(Cl)cc32)CC1.O=C(O)/C=C\C(=O)O.O=C(O)/C=C\C(=O)O | 362 | 390 | 386 | 429 | 421 | 423 | 471 | 466 | 465
CC(S)C(=O)NCC(=O)O (stereo not drawn) | 464 | 440 | 469 | 471 | 476 | 472 | 438 | 432 | 417
O=C(NCC1CCOCC1)c1cnc(Nc2ccc(Cl)cc2Cl)nc1C(F)(F)F | 439 | 456 | 456 | 450 | 472 | 465 | 425 | 461 | 448
Oc1ccc([C@@H]2Oc3ccc(O)cc3[C@@H]3CCC[C@@H]32)cc1 | 412 | 423 | 406 | 394 | 372 | 349 |  |  | 
O=C1N\C=N/C2=C1C=N[NH]2 | 425 | 421 | 382 | 393 | 397 | 398 | 359 | 350 | 384
Nc1nc(NCCNc2ncc(-n3ccnc3)c(-c3ccc(Cl)cc3Cl)n2)ccc1[N+](=O)[O-] | 460 | 412 | 442 | 464 | 447 | 466 | 452 | 446 | 450

Compound | AUC of viability dose-response curve ([1]; HPLM + 10% dialyzed FBS) | AUC of viability dose-response curve ([1]; RPMI 5 mM glucose + 10% FBS) | AUC of viability dose-response curve [1, 4] | AUC of viability dose-response curve ([2]; HPLM + 10% dialyzed FBS) | AUC of viability dose-response curve ([2]; RPMI 5 mM glucose + 10% FBS) | AUC of viability dose-response curve [2, 4] | AUC of viability dose-response curve ([3]; HPLM + 10% dialyzed FBS) | AUC of viability dose-response curve ([3]; RPMI 5 mM glucose + 10% FBS) | AUC of viability dose-response curve [3, 4]
CCc1cc(-c2n[nH]c(C)c2-c2ccc3c(c2)OCCO3)c(O)cc1O | 450 | 447 | 448 | 455 | 435 | 444 | 422 | 414 | 418
N#CC[C@H](C1CCCC1)n1cc(-c2ncnc3[nH]ccc23)cn1 | 384 | 374 | 407 | 408 | 401 | 372 | 405 | 396 | 402
CCOC(=O)[C@H]1O[C@@H]1C(=O)N[C@@H](CC(C)C)C(=O)NCCC(C)C | 448 | 445 | 456 | 462 | 461 | 469 | 462 | 475 | 462
C1COC(NC(C2CC2)C2CC2)=N1 | 428 | 415 | 408 | 425 | 459 | 404 |  |  | 
CC(C)CC(N(C)C)C1(c2ccc(Cl)cc2)CCC1 (stereo not drawn) | 441 | 457 | 463 | 393 | 392 | 382 | 424 | 408 | 406
NCCc1ccc(O)c(O)c1 | 410 | 426 | 429 | 464 | 463 | 474 | 431 | 450 | 449
CN(C(Cc1ccc(O[S+](=O)([O-])c2cccc3cnccc23)cc1)C(=O)N1CCN(c2ccccc2)CC1)[S+](=O)([O-])c1cccc2cnccc12 (stereo not drawn) | 442 | 425 | 436 | 452 | 434 | 450 | 436 | 424 | 428
C[N+]1(C)[C@@H]2CC(OC(=O)C(O)(c3cccs3)c3cccs3)C[C@H]1[C@@H]1O[C@@H]12 (stereo partly drawn) | 464 | 466 | 471 | 471 | 476 | 468 | 462 | 460 | 457
Cc1cccc2c1CC[C@H](CN1CCC(c3c(Cl)cccc3Cl)CC1)C[C@@H]2O | 453 | 424 | 413 | 472 | 425 | 439 | 474 | 437 | 441
CC[C@@H]1C(=O)N(C)c2cnc(Nc3ccc(C(=O)NC4CCN(C)CC4)cc3OC)nc2N1C1CCCC1 | 259 | 240 | 252 | 187 | 196 | 210 | 205 | 215 | 213
CCOC(=O)[C@@H](N)CCC(=O)N[C@@H](CSCc1ccccc1)C(=O)N[C@@H](C(=O)OCC)c1ccccc1 | 468 | 466 | 474 | 467 | 458 | 458 | 466 | 473 | 461
COC(=O)[C@H](c1ccccc1Cl)N1CCc2sccc2C1 | 357 | 328 | 343 | 414 | 416 | 427 | 449 | 440 | 432
Oc1ccc2ccccc2c1SSc1c(O)ccc2ccccc12 | 470 | 469 | 469 | 474 | 464 | 463 | 453 | 450 | 417
C[N]1C=C(C=N1)C2=CC=C3N=CC\4=C(N(C(=O)\C=C4)C5=CC6=C(CCN6C(=O)C=C)C=C5)C3=C2 | 359 | 396 | 375 | 404 | 391 | 393 | 359 | 360 | 353
COc1cc2c(Nc3ccc(Cl)c(Cl)c3F)ncnc2cc1OC[C@@H]1C[C@@H]2CN(C)C[C@@H]2C1 | 421 | 450 | 447 | 444 | 453 | 444 | 384 | 443 | 438
CCCCCCCCCCCC/1=C(O)/C(=O)/C=C(O)\C1=O | 326 | 301 | 326 | 357 | 357 | 375 | 462 | 454 | 457
CCN(CC)CCCC(C)Nc1nc(C)cc(Nc2ccc3nc(C)cc(N)c3c2)n1 (stereo not drawn) | 464 | 470 | 468 | 461 | 464 | 469 |  |  | 
CC(C)n1cnc2c(NCCc3ccc(O)cc3)nc(-c3csc4ccccc34)nc21 | 393 | 434 | 433 | 371 | 428 | 422 | 424 | 396 | 388
CC(C)(C)C1=CC(=C(NC(=O)C/2=C/NC3=C(C=CC=C3)C2=O)C=C1O)C(C)(C)C | 447 | 462 | 464 | 471 | 452 | 455 | 461 | 467 | 470
C[N]1N=CC=C1C/2=C(\C)N(C(=O)C(=C2)/C(=O)NCC3=NC=C(C=C3)[S+](C)([O-])=O)C4=CC=CC(=C4)C(F)(F)F |  |  |  | 462 | 454 | 455 | 466 | 453 | 468
Cc1cnc(Nc2ccc(CN3CCOCC3)cc2)nc1Nc1cccc([S+](=O)([O-])NC(C)(C)C)c1 |  |  |  | 299 | 300 | 292 |  |  | 
COc1ccc([S+](=O)([O-])Nc2cccnc2Nc2ccc(O)cc2)cc1 | 387 | 379 | 410 | 372 | 377 | 388 |  |  | 
CS[C@H]1SC[C@@H]2C(=O)N(C)[C@H](C(C)C)C(=O)OC[C@H](NC(=O)c3cnc4ccccc4n3)C(=O)N[C@H](C)C(=O)N(C)[C@H]1C(=O)N(C)[C@H](C(C)C)C(=O)OC[C@H](NC(=O)c1cnc3ccccc3n1)C(=O)N[C@H](C)C(=O)N2C | 140 | 142 | 141 | 176 | 148 | 140 |  |  | 
